Source: patent US8815849B2, “Hetero-bicyclic derivatives as HCV inhibitors” (Janssen R&D Ireland, priority 2010, dated 2014)
Like-named read-outs stand apart in the source and are kept apart here.

Columns and labels:
[1] = test system: HCV replicon (Huh-Luc cells, NS3-NS5B regions of HCV type 1b); assay: HCV replicon assay (Huh-7 luc/neo, luciferase readout); type: cell-based; conditions: average if tested more than once
Text: The in vitro antiviral activity against HCV of the compounds of formula I can be tested in a cellular HCV replicon system based on Lohmann et al. (1999) Science 285:110-113, with the further modifications described by Krieger et al. (2001) Journal of Virology 75: 4614-4624 (incorporated herein by reference), which is further exemplified in the examples section. This model, while not a complete infection model for HCV, is widely accepted as the most robust and efficient model of autonomous HCV RNA replication currently available. It will be appreciated that it is important to distinguish between compounds that specifically interfere with HCV functions from those that exert cytotoxic or cytostatic effects in the HCV replicon model, and as a consequence cause a decrease in HCV RNA or linked reporter enzyme concentration. Assays are known in the field for the evaluation of cellular cytotoxicity based for example on the activity of mitochondrial enzymes using fluorogenic redox dyes such as resazurin. Furthermore, cellular counter screens exist for the evaluation of non-selective inhibition of linked reporter gene activity, such as firefly luciferase. Appropriate cell types can be equipped by stable transfection with a luciferase reporter gene whose expression is dependent on a constitutively active gene promoter, and such cells can be used as a counter-screen to eliminate non-selective inhibitors.
The compounds of formula (I) were examined for inhibitory activity in the HCV replicon. This cellular assay is based on a bicistronic expression construct, as described by Lohmann et al. (1999) Science vol. 285 pp. 110-113 with modifications described by Krieger et al. (2001) Journal of Virology 75: 4614-4624, in a multi-target screening strategy.
The assay utilized the stably transfected cell line Huh-7 luc/neo (hereafter referred to as Huh-Luc). This cell line harbors an RNA encoding a bicistronic expression construct comprising the wild type NS3-NS5B regions of HCV type 1b translated from an
Internal Ribosome Entry Site (IRES) from encephalomyocarditis virus (EMCV), preceded by a reporter portion (FfL-luciferase), and a selectable marker portion (neo^R, neomycine phosphotransferase). The construct is flanked by 5′ and 3′ NTRs (non-translated regions) from HCV type 1b. Continued culture of the replicon cells in the presence of G418 (neo^R) is dependent on the replication of the HCV RNA. The stably transfected replicon cells that express HCV RNA, which replicates autonomously and to high levels, encoding inter alia luciferase, were used for screening the antiviral compounds.
The replicon cells were plated in 384 well plates in the presence of the test and control compounds which were added in various concentrations. Following an incubation of three days, HCV replication was measured by assaying luciferase activity (using standard luciferase assay substrates and reagents and a Perkin Elmer ViewLux™ ultraHTS microplate imager). Replicon cells in the control cultures have high luciferase expression in the absence of any inhibitor. The inhibitory activity of the compound on luciferase activity was monitored on the Huh-Luc cells, enabling a dose-response curve for each test compound. EC50 values were then calculated, which represent the amount of compound required to decrease the level of detected luciferase activity by 50%, or more specifically, to reduce the ability of the genetically linked HCV replicon RNA to replicate.
Where a compound of formula (I) was tested more than once in the replicon assay, the average of all test results is given in this Table 1.

LLC-MDR1 monolayers = type: in vitro ADME; conditions: pig, LLC-PK1, 120 min
Method: Assay Description for the Measurement of Transepithelial Transport of Test Compounds Through LLC-MDR1 Monolayers
The integrity of the cellular monolayer was assessed in each incubation well through the inclusion of the fluorescent, low permeability marker compound, Fluorescein.
In detail, LLC-MDR1 cells (LLC-PK1 cells stably transduced with MDR1 in a trans-well system) were seeded on 24-well cell culture inserts (Millicell®-PCF, 0.4 μm, 13 mm Ø, 0.7 cm^2) at 400 000 cells/cm^2. Cell culture medium consists of Medium 199 supplemented with 10% Fetal Bovine Serum (FBS) and 100 U/mL Penicillin/streptomycin and was replaced the day after seeding and the day before the experiment. The transport experiment was performed 5 days after seeding. On the day of the experiment, solutions of the test compounds were applied to the apical side of the monolayers to assess transport in the AtoB direction,. The medium used in the assay was (OPTI-MEM (1×) (GIBCO) with 1 w/v % Bovine Serum Albumin. Inserts were incubated at 37° C. in a humidified incubator containing 5% CO2. Samples from the acceptor and donor compartments were collected after an incubation time of 120 min, to assess the permeability and to allow estimation of the test compound recovery during the experiment, respectively. Transport experiments were performed in triplicate. Absolute test compound concentrations were measured using LC-MS/MS and quantified via a calibration curve.

[2] = Hepatitis C virus, Huh-7, 72 h, Huh-Luc replicon cells, three days incubation, luciferase activity, read-out: HCV-REP-HUH7LUC_EC50
[3] = Huh-Luc replicon cells, three days incubation, luciferase activity, read-out: HCV-REP-HUH7LUC_EC50

COC(=O)N[C@H](C(=O)N1CCC[C@H]1c1ncc(-c2ccc3cc(-c4ccc5c(=O)[nH]c([C@@H]6CCCN6C(=O)[C@H](NC(=O)OC6CCCC6)c6ccccc6)nc5c4)ccc3c2)[nH]1)C(C)C [Compound 44-3]
EC50 [1, 2]: 1 nM

COC[C@H](NC(=O)OC)C(=O)N1CCCC1c1cc(=O)c2ccc(-c3ccc4cc(-c5cnc([C@@H]6CCCN6C(=O)[C@@H](NC(=O)OC)C(C)C)[nH]5)ccc4c3)cc2[nH]1 (stereo partly shown) [Compound 13-A8]
EC50 [1, 2]: 0.18 nM

COC(=O)N[C@H](C(=O)N1CCC[C@H]1c1ncc(-c2ccc3cc(-c4ccc5c(=O)cc(C6CCCN6C(=O)[C@@H](NC(=O)OC)[C@@H](C)OC)[nH]c5c4)ccc3c2)[nH]1)C(C)C (stereo partly shown) [Compound 13-A1]
EC50 [1, 2]: 0.1 nM

CC[C@H](C)[C@H](NC(=O)OC)C(=O)N1CCCC1c1cc(=O)c2cc(-c3ccc4cc(-c5cnc([C@@H]6CCCN6C(=O)[C@@H](NC(=O)OC)[C@@H](C)CC)[nH]5)ccc4c3)ccc2[nH]1 (stereo partly shown) [Compound 24]
EC50 [1, 3]: 0.048 nM

COC(=O)N[C@H](C(=O)N1CCCCC1c1cc(=O)c2ccc(-c3ccc4cc(-c5cnc([C@@H]6CCCN6C(=O)[C@@H](NC(=O)OC)C(C)C)[nH]5)ccc4c3)cc2[nH]1)C(C)C (stereo partly shown) [Compound 76]
EC50 [1, 2]: 0.034 nM | A->B permeability (Papp × 10^−6 cm/sec) in the presence the P-gp inhibitor GF120918 (LLC-MDR1 monolayers): 3.1 10^−6 cm/sec

CC[C@@H](C)[C@H](NC(=O)OC)C(=O)N1CCCC1c1cc(=O)c2ccc(-c3ccc4cc(-c5cnc([C@@H]6CCCN6C(=O)[C@@H](NC(=O)OC)C(C)C)[nH]5)ccc4c3)cc2[nH]1 (stereo partly shown) [Compound 13-A5]
EC50 [1, 2]: 0.062 nM

CC[C@H](C)[C@H](NC(=O)OC)C(=O)N1CCCC1c1cc(=O)c2ccc(-c3ccc4cc(-c5cnc([C@@H]6CCCN6C(=O)[C@@H](NC(=O)OC)C(C)C)[nH]5)ccc4c3)cc2[nH]1 (stereo partly shown) [Compound 13-A3]
A->B permeability (Papp × 10^−6 cm/sec) in the presence the P-gp inhibitor GF120918 (LLC-MDR1 monolayers): 0.9 10^−6 cm/sec

COC(=O)NC(C(=O)N1CCCC1c1cc(=O)c2ccc(-c3ccc4cc(-c5cnc([C@@H]6CCCN6C(=O)[C@@H](NC(=O)OC)C(C)C)[nH]5)ccc4c3)cc2[nH]1)C1CCOCC1 (stereo partly shown) [Compound 13-A4]
EC50 [1, 2]: 1.2 nM

CC[C@H](C)[C@H](NC(=O)OC)C(=O)N1CCCC1c1cc(=O)c2cc(-c3ccc4cc(-c5cnc([C@@H]6CCCN6C(=O)[C@@H](NC(=O)OC)[C@@H](C)CC)[nH]5)ccc4c3)ccc2[nH]1 (single isomer, unassigned) [Compound 24a]
EC50 [1, 3]: 9.6 nM

COC(=O)N[C@H](C(=O)N1CCCC1c1cc2ccc(-c3ccc4cc(-c5cnc([C@@H]6CCCN6C(=O)[C@@H](NC(=O)OC)[C@@H](C)OC)[nH]5)ccc4c3)cc2c(=O)[nH]1)[C@@H](C)OC (stereo partly shown) [Compound 20-A]
EC50 ([1]; Hepatitis C virus, Huh-7, 72 h, read-out: HCV-REP-HUH7LUC_EC50 (nM), Huh-Luc replicon cells, three days incubation, luciferase activity): 0.2 nM

COC[C@H](NC(=O)OC(C)(C)C)C(=O)N1CCCC1c1cc(=O)c2ccc(-c3ccc4cc(-c5cnc([C@@H]6CCCN6C(=O)[C@@H](NC(=O)OC)C(C)C)[nH]5)ccc4c3)cc2[nH]1 (stereo partly shown) [Compound 13-A7]
EC50 [1, 2]: 0.053 nM

COC(=O)N[C@H](C(=O)N1CCCC1c1cc(=O)c2ncc(-c3ccc4cc(-c5cnc([C@@H]6CCCN6C(=O)[C@@H](NC(=O)OC)C(C)C)[nH]5)ccc4c3)cc2[nH]1)C(C)C (stereo partly shown) [Compound 97]
EC50 [1, 2]: 0.24 nM

COC(=O)N[C@H](C(=O)N1CCCC1c1[nH]c2cc(-c3ccc4cc(-c5cnc([C@@H]6CCCN6C(=O)[C@@H](NC(=O)OC)C(C)C)[nH]5)ccc4c3)ccc2c(=O)c1Cl)C(C)C (single isomer, unassigned) [Compound 106a]
EC50 [1, 3]: 0.12 nM

COC(=O)N[C@H](C(=O)N1CCC[C@H]1c1ncc(-c2ccc3cc(-c4ccc5c(=O)cc(C6C[C@@H]7CCCC[C@@H]7N6C(=O)[C@@H](NC(=O)OC)C(C)C)[nH]c5c4)ccc3c2)[nH]1)C(C)C (stereo partly shown) [Compound 119a]
EC50 [1, 2]: 0.033 nM

COC(=O)N[C@H](C(=O)N1CCCC1c1cc2ccc(-c3ccc4cc(-c5cnc([C@@H]6CCCN6C(=O)[C@@H](NC(=O)OC)C(C)C)[nH]5)ccc4c3)cc2c(=O)[nH]1)C(C)C (stereo partly shown) [Compound 20]
EC50 [1, 2]: 0.79 nM

COC(=O)N[C@H](C(=O)N1CCCC1c1cc(=O)c2cc(-c3ccc4cc(-c5cnc([C@@H]6CCCN6C(=O)[C@@H](NC(=O)OC)[C@@H](C)OC)[nH]5)ccc4c3)ccc2[nH]1)[C@@H](C)OC (stereo partly shown) [Compound 23]
EC50 [1, 2]: 0.47 nM

CC[C@H](NC(=O)OC)C(=O)N1CCCC1c1cc(=O)c2ccc(-c3ccc4cc(-c5cnc([C@@H]6CCCN6C(=O)[C@@H](NC(=O)OC)C(C)C)[nH]5)ccc4c3)cc2[nH]1 (stereo partly shown) [Compound 13-A2]
EC50 [1, 2]: 0.079 nM

COC(=O)N[C@H](C(=O)N1CCCC1c1cc(=O)c2ccc(-c3ccc4cc(-c5cnc([C@@H]6CCCN6C(=O)[C@@H](NC(=O)OC)C(C)C)[nH]5)ccc4c3)cc2[nH]1)C(C)C (stereo partly shown) [Compound 13a]
EC50 [1, 3]: 0.91 nM

COCC[C@H](NC(=O)OC)C(=O)N1CCCC1c1cc(=O)c2ccc(-c3ccc4cc(-c5cnc([C@@H]6CCCN6C(=O)[C@@H](NC(=O)OC)C(C)C)[nH]5)ccc4c3)cc2[nH]1 (stereo partly shown) [Compound 13-A6]
EC50 [1, 2]: 0.5 nM

COC(=O)N[C@H](C(=O)N1CCCC1c1[nH]c2cc(-c3ccc4cc(-c5cnc([C@@H]6CCCN6C(=O)[C@@H](NC(=O)OC)C(C)C)[nH]5)ccc4c3)ccc2c(=O)c1Cl)C(C)C (single isomer, unassigned) [Compound 106b]
EC50 [1, 3]: 20.6 nM

COC(=O)N[C@H](C(=O)N1CCCC1c1cc(=O)c2cc(-c3ccc4cc(-c5cnc([C@@H]6CCCN6C(=O)[C@@H](NC(=O)OC)C(C)C)[nH]5)ccc4c3)ccc2[nH]1)C(C)C (single isomer, unassigned) [Compound 22b]
EC50 [1, 3]: 0.052 nM

COC(=O)N[C@H](C(=O)N1CCCC1c1[nH]c2cc(-c3ccc4cc(-c5cnc([C@@H]6CCCN6C(=O)[C@@H](NC(=O)OC)C(C)C)[nH]5)ccc4c3)ccc2c(=O)c1C)C(C)C (stereo partly shown) [Compound 102b]
EC50 [1, 2]: 20.6 nM

COC(=O)N[C@H](C(=O)N1CCCC1c1cc(=O)c2cc(-c3ccc4cc(-c5cnc([C@@H]6CCCN6C(=O)[C@@H](NC(=O)OC)C(C)C)[nH]5)ccc4c3)ccc2[nH]1)C(C)C (stereo partly shown) [Compound 22]
EC50 [1, 3]: 0.075 nM

COC(=O)N[C@H](C(=O)N1CCCC1c1cc(=O)c2cc(-c3ccc4cc(-c5cnc([C@@H]6CCCN6C(=O)[C@@H](NC(=O)OC)[C@@H](C)OC)[nH]5)ccc4c3)ccc2[nH]1)[C@@H](C)OC (stereo partly shown) [Compound 23b]
EC50 [1, 3]: 0.34 nM

COC(=O)N[C@H](C(=O)N1CCCC1c1cc(=O)c2ccc(-c3ccc4cc(-c5cnc([C@@H]6CCCN6C(=O)[C@@H](NC(=O)OC)C(C)C)[nH]5)ccc4c3)cc2[nH]1)C(C)C (stereo partly shown) [Compound 13]
EC50 [1, 3]: 0.028 nM

COC(=O)N[C@H](C(=O)N1CCCC1c1cc(=O)c2cc(-c3ccc4cc(-c5cnc([C@@H]6CCCN6C(=O)[C@@H](NC(=O)OC)C(C)C)[nH]5)ccc4c3)ccc2[nH]1)C(C)C (single isomer, unassigned) [Compound 22a]
EC50 [1, 3]: 3.4 nM

COC(=O)N[C@H](C(=O)N1CCC[C@H]1c1ncc(-c2ccc3cc(-c4ccc5c(=O)[nH]c([C@@H]6CCCN6C(=O)[C@H](NC(=O)OC6CCC6)c6ccccc6)nc5c4)ccc3c2)[nH]1)C(C)C [Compound 44-4]
EC50 [1, 2]: 9.8 nM
